Like-named read-outs stand apart in the source and are kept apart here.

The nature of series [1]: Stability Test-1: odor of 1% aqueous solutions adjusted to pH 7 stored at 50° C. The class given is physicochemical. To be noted: 1% aqueous solution pH 7, 50° C., 10 panelists. As for the experimental part: (§1) For each of the samples of Synthesis Examples 1 to 6, 1% aqueous solutions were adjusted to pH 3, 5, 7, 8, and 9 with a dilute potassium hydroxide aqueous solution, and then placed in 50 mL screw tubes and sealed. […] Furthermore, the odor and coloration of the samples adjusted to pH 7 were evaluated based on the following methods and criteria, and the results are shown in Table 11.
(§2) • Evaluation was made by 10 panelists according to the following criteria. • 3: Almost odorless. • 2: There is a slight strange odor. • 1: A strong odor is detected. • Based on the results of the above evaluation, the following classification was made: • ◯: Total score of 10 panelists is 25 or more • Δ: Total score of 10 panelists is 16-24 • x: The total score of 10 panelists is 15 or less

Series [2] is described as follows: Stability Test-1: coloration of 1% aqueous solutions adjusted to pH 7 stored at 50° C. It is filed as physicochemical. To be noted: 1% aqueous solution pH 7, 50° C., 10 panelists. As for the experimental part:
as §1
• Evaluation was made by 10 panelists according to the following criteria. • 3: Almost no change compared to immediately after preparation. • 2: Color changes compared to immediately after preparation. • 1: Strongly colored compared to immediately after preparation. • Based on the results of the above evaluation, the following classification was made: […]

The subject of series [3] is Normal human dermal fibroblasts (NHDF). Description: Hyaluronic acid production promoting effect (ELISA of hyaluronic acid in supernatant). The class given is cell-based. As to conditions: 10 mM or less, 48 hours, control group set to 100%, N=3. As to the method:
Normal human dermal fibroblasts (NHDF) were prepared in D-MEM containing 5% (v/v) fetal bovine serum to a cell density of 2.5×10^4 cells/well, and then pre-incubated on a 96-well plate for 24 hours. After removing the medium, samples prepared in serum-free D-MEM were added to each well and cultured for 48 hours. After the culture was completed, the amount of hyaluronic acid in the supernatant was quantified by ELISA. Measurements were performed in triplicate (N=3).
The amount of hyaluronic acid produced when the sample was measured at a concentration of 10 mM or less was compared with that of the control group, and the results (% values when the control group is set to 100%) are shown in Tables 18 to 20 based on the following criteria.

A short description of series [4]: Stability Test-1: residual rate of 1% aqueous solutions stored at 50° C. (HPLC). The class given is physicochemical. To be noted: water; for remaining at 672 h: after 4 weeks. As to the method:
as §1
• ⊚: 80% or more • ◯: 50% or more, less than 80% • Δ: 30% or more, less than 50% • x: Less than 30%

For series [5], the system named is Normal human dermal fibroblasts. The series is described as follows: Collagen production promoting effect (ELISA of free collagen in supernatant). The class given is cell-based. As to conditions: 10 mM or less, 48 hours, control group set to 100%, N=3. As to the method: Normal human dermal fibroblasts were prepared in D-MEM containing 5% (v/v) fetal bovine serum to a cell density of 2.5×10^4 cells/well, and then pre-incubated for 24 hours on a 96-well plate. After removing the medium, samples prepared to a predetermined concentration in D-MEM containing 5% (v/v) fetal bovine serum were added to each well and cultured for 48 hours. After the culture was completed, the amount of free collagen in the supernatant was quantified by ELISA. Measurements were performed in triplicate (N=3).
The amount of collagen produced when the sample was measured at a concentration of 10 mM or less was compared with that of the control group, and the results (% values when the control group was set to 100%) are shown in Table 17 based on the following criteria.

A short description of series [6]: Stability Test-2: coloration of cream stored at 50° C. The class given is physicochemical. To be noted: 10 panelists. The source says: • Evaluation was made by 10 panelists according to the following criteria. • 3: Almost no change compared to immediately after preparation. • 2: Color changes compared to immediately after preparation. • 1: Strongly colored compared to immediately after preparation. • Based on the results of the above evaluation, the following classification was made:
(§3) For each of the samples of Synthesis Examples 9 to 32, (a) and (b) shown in Table 12 were each heated and mixed. After cooling, (c) shown in Table 12 was added to prepare a cream with a pH of 7 or 9. […] The odor and coloration were also evaluated according to the same method and criteria as in Test Example 1. The results regarding the residual rate are shown in Tables 13 and 14, and the results regarding the odor and coloration are shown in Tables 15 and 16.

Series [7] can be described thus: Stability Test-2: residual rate in cream of pH 7 or 9 stored at 50° C. The class given is physicochemical. As for the experimental part:
as §3

Series [8] in a line: Stability Test-2: odor of cream stored at 50° C. The class given is physicochemical. As to conditions: 10 panelists.
Text: as §2, §3

The mark [9] stands for this setting: pH 3, 50° C., after 2 weeks, 1% aqueous solution, read-out: Residual Rate.
The mark [10] stands for this setting: pH 3, 50° C., 1% aqueous solution.
Where [11] appears, read: pH 5, 50° C., after 2 weeks, 1% aqueous solution, read-out: Residual Rate.
[12] abbreviates: pH 5, 50° C., 1% aqueous solution.
Setting [13] is: pH 7, 50° C., after 2 weeks, 1% aqueous solution, read-out: Residual Rate.
The mark [14] stands for this setting: pH 7, 50° C., 1% aqueous solution.
Where [15] appears, read: pH 8, 50° C., after 2 weeks, 1% aqueous solution, read-out: Residual Rate.
Where [16] appears, read: pH 8, 50° C., 1% aqueous solution.
Where [17] appears, read: pH 9, 50° C., after 2 weeks, 1% aqueous solution, read-out: Residual Rate.
Where [18] appears, read: pH 9, 50° C., 1% aqueous solution.
Where [19] appears, read: cream pH 7, 50° C., after 2 weeks, 20160 min.
[20] abbreviates: cream pH 7, 50° C., after 4 weeks, 40320 min.
[21] abbreviates: cream pH 9, 50° C., after 2 weeks, 20160 min.
[22] abbreviates: cream pH 9, 50° C., after 4 weeks, 40320 min.

For the molecule `O=C1O[C@H]([C@@H](O)CO)C(O)=C1O` [Ascorbic acid], the Odor result in series [1] (after 2 weeks) is on record as “Δ (Total score of 10 panelists is 16-24)”; in series [1] (after 4 weeks), “x (The total score of 10 panelists is 15 or less)”. Besides, the values for the Coloration result in series [2] (after 2 weeks) and in series [2] (after 4 weeks) were “Δ (Total score of 10 panelists is 16-24)” and “x (The total score of 10 panelists is 15 or less)”, respectively. In addition, the “Hyaluronic acid production-promoting effect” value in series [3] is listed as “± (<100%)”. For the same molecule, the remaining at 336 h in series [4] (setting [9]) is 50 to 80%; in series [4] (setting [11]), 50 to 80%; in series [4] (setting [13]) it was below 30%; in series [4] (pH 7 to 9, 50° C., after two weeks, read-out: residual rates), below 30%; in series [4] (setting [15]), below 30%; in series [4] (setting [17]), below 30%. Moreover, the remaining at 672 h in series [4] (setting [10]) is 30 to 50%; in series [4] (setting [12]), below 30%; in series [4] (setting [14]) it was below 30%; in series [4] (setting [16]), below 30%; in series [4] (setting [18]), below 30%.
Regarding `O=C1OC(C(O)CO)C2=C1OCC(O)CO2` (stereo not drawn) [Synthesis Example 4, 2,3-O-(2-hydroxypropane-1,3-diyl) ascorbic acid], the Odor entry in series [1] (after 2 weeks) and in series [1] (after 4 weeks) was “∘ (Total score of 10 panelists is 25 or more)” each time. For the same molecule, the Coloration entry in series [2] (after 2 weeks) and in series [2] (after 4 weeks) was “∘ (Total score of 10 panelists is 25 or more)” each time. The “Hyaluronic acid production-promoting effect” value in series [3] is reported as “++ (120%<)”. Further, the remaining at 336 h was at least 80% in series [4] (setting [9]); at least 80% in series [4] (setting [11]); 50 to 80% in series [4] (setting [13]); 50 to 80% in series [4] (setting [15]); 50 to 80% in series [4] (setting [17]). Also, the remaining at 672 h in series [4] (setting [10]) is at least 80%; in series [4] (setting [12]) it was at least 80%; in series [4] (setting [14]), 50 to 80%; in series [4] (setting [16]), 30 to 50%; in series [4] (setting [18]), 30 to 50%.
On to `O=C1OC(C(O)CO)C2=C1OC(CO)CO2` (stereo not drawn) [Synthesis Example 5, 2,3-O-(1-hydroxymethyl-1,2-ethanediyl) ascorbic acid], for which the Odor entry in series [1] (after 2 weeks) and in series [1] (after 4 weeks) was “∘ (Total score of 10 panelists is 25 or more)” throughout. Also, the Coloration entry in series [2] (after 2 weeks) and in series [2] (after 4 weeks) was “∘ (Total score of 10 panelists is 25 or more)” in each case. Moreover, the remaining at 336 h in series [4] (setting [9]) was at least 80%; in series [4] (setting [11]), at least 80%; in series [4] (setting [13]) it was 50 to 80%; in series [4] (setting [15]) it was 50 to 80%; in series [4] (setting [17]), 50 to 80%. For the same molecule, the remaining at 672 h in series [4] (setting [10]) is at least 80%; in series [4] (setting [12]) it was at least 80%; in series [4] (setting [14]), 30 to 50%; in series [4] (setting [16]) it was 30 to 50%; in series [4] (setting [18]), 30 to 50%.
As for `CCCCCCCC(=O)OCC(OC(=O)CCCCCCC)C1OC(=O)C2=C1OCCCCO2` (stereo not drawn) [Synthesis Example 12, 5,6-O-dioctanoyl-2,3-O-(1,4-butanediyl) ascorbic acid], the Collagen production-promoting effect result in series [5] is reported as “++ (140%<)”. Besides, the Coloration result in series [6] (after 2 weeks) and in series [6] (after 4 weeks) was “◯ (Total score of 10 panelists is 25 or more)” in each case. Also, the “Hyaluronic acid production-promoting effect” value in series [3] is “++ (120%<)”. Moreover, the “Residual Rate” value in series [7] (setting [19]), in series [7] (setting [20]), in series [7] (setting [21]) and in series [7] (setting [22]) was “⊚ (95% or more)” in each case. Further, the Odor result in series [8] (after 2 weeks) was “◯ (Total score of 10 panelists is 25 or more)”; in series [8] (after 4 weeks) it was “Δ (Total score of 10 panelists is 16-24)”.
With `CCCCCCCCCCCCCCCC(=O)OCC(O)C1OC(=O)C2=C1OCCCCO2` (stereo not drawn) [Synthesis Example 15, 6-O-palmitoyl-2,3-O-(1,4-butanediyl) ascorbic acid], the Collagen production-promoting effect result in series [5] is given as “++ (140%<)”. The Coloration result in series [6] (after 2 weeks) and in series [6] (after 4 weeks) was “◯ (Total score of 10 panelists is 25 or more)” in each case. In addition, the “Hyaluronic acid production-promoting effect” value in series [3] is “++ (120%<)”. For the same molecule, the “Residual Rate” value in series [7] (setting [19]), in series [7] (setting [20]), in series [7] (setting [21]) and in series [7] (setting [22]) was “⊚ (95% or more)” throughout. Also, the Odor result is recorded as “◯ (Total score of 10 panelists is 25 or more)” in series [8] (after 2 weeks) and “Δ (Total score of 10 panelists is 16-24)” in series [8] (after 4 weeks).
With `CCCC(=O)OCC(OC(=O)CCC)C1OC(=O)C2=C1OCCCO2` (stereo not drawn) [Synthesis Example 21, 5,6-O-dibutanoyl-2,3-O-(1,3-propanediyl) ascorbic acid], in series [5], the Collagen production-promoting effect entry is on record as “++ (140%<)”. In addition, the Coloration result in series [6] (after 2 weeks) and in series [6] (after 4 weeks) was “◯ (Total score of 10 panelists is 25 or more)” in each case. Besides, the “Hyaluronic acid production-promoting effect” value in series [3] is recorded as “++ (120%<)”. The “Residual Rate” value in series [7] (setting [19]), in series [7] (setting [20]), in series [7] (setting [21]) and in series [7] (setting [22]) was “⊚ (95% or more)” throughout. In addition, the Odor result was “◯ (Total score of 10 panelists is 25 or more)” in series [8] (after 2 weeks) and “Δ (Total score of 10 panelists is 16-24)” in series [8] (after 4 weeks).
In the case of `CC(C)CCCCCCCCCCCCCCC(=O)OCC(OC(=O)CCCCCCCCCCCCCCC(C)C)C1OC(=O)C2=C1OCCCO2` (stereo not drawn) [Synthesis Example 29, 5,6-O-diisostearoyl-2,3-O-(1,3-propanediyl) ascorbic acid], in series [5], the Collagen production-promoting effect result is listed as “++ (140%<)”. Further, the Coloration result in series [6] (after 2 weeks) and in series [6] (after 4 weeks) was “◯ (Total score of 10 panelists is 25 or more)” throughout. The “Residual Rate” value in series [7] (setting [19]), in series [7] (setting [20]), in series [7] (setting [21]) and in series [7] (setting [22]) was “⊚ (95% or more)” each time. For the same molecule, the Odor result was “◯ (Total score of 10 panelists is 25 or more)” in series [8] (after 2 weeks) and “Δ (Total score of 10 panelists is 16-24)” in series [8] (after 4 weeks).
